Reference: PMC2756574, “Crystal Structures of Multidrug Binding Protein TtgR in Complex with Antibiotics and Plant Antimicrobials” (Journal of Molecular Biology, 2007)

Assays:
TtgR [1] = target: T1, TtgR (Pseudomonas putida, UniProt Q9AIU0); test: isothermal titration calorimetry; type: binding
T1 construct: full-length, ttgR in pET29a+, expressed in E. coli B834(DE3); heparin and gel filtration purification; homodimer; residues about 10-210 seen in crystals

TtgR [2] = target: TtgR (Pseudomonas putida, UniProt Q9AIU0, R176G); test: biochemical
TtgR [3] = target: T1, TtgR; test: X-ray crystal structure of complex; details: general binding site, 2 per dimer; co-crystal, 2.4 Å

`O=C(CCc1ccc(O)cc1)c1c(O)cc(O)cc1O` [phloretin] showed a Kd (TtgR [1]) of 0.05 ± 0.01 µM and a Kd (TtgR [2]) of 9.2 ± 0.5 µM.
For `O=c1c(O)c(-c2ccc(O)c(O)c2)oc2cc(O)cc(O)c12` [quercetin], the “X-ray crystal structure of complex” value (TtgR [3]) was “Both effectors bind at similar locations to the hydrophobic binding site as tetracycline and chloramphenicol”.
